Earlier results in patent publication US20060205656A1 (priority 1999, published 2006).

Details: in vivo

contulakin-G
potency in inhibiting pain relative to neurotensin: significantly more potent than neurotensin
